Experimental data: patent US10676514B2, “CDCA1-derived peptide and vaccine containing same” (ONCOTHERAPY SCIENCE, INC., priority 2014, dated 2020)
Entries after “also recorded” stand apart in the source; their conditions may differ.

Key:
Type in all cases: cell-based, human
[1] = test system: peptide-pulsed C1R-A33 cells; experiment: IFN-gamma ELISPOT assay of peptide-induced CTLs (HLA-A*3303); details: CTLs induced from HLA-A*3303-positive donors, peptide-pulsed C1R-A33 vs control
Text: (§1) Monocyte-derived dendritic cells (DCs) were used as the antigen-presenting cell to induce a cytotoxic T lymphocyte (CTL) response against peptides presented on human leukocyte antigens (HLAs). As described in the other sections, DCs were generated in vitro (Nakahara S et al., Cancer Res 2003, 63(14): 4112-8). Specifically, peripheral-blood mononuclear cells isolated from healthy volunteers (HLA-A*3303-positive) with the Ficoll-Paque plus solution (Pharmacia) were separated by attaching to plastic tissue culture dishes (Becton Dickinson) and concentrated as a monocyte fraction. The monocyte-concentrated population was cultured in the presence of 1000 IU/ml granulocyte macrophage colony-stimulating factor (R&D System) and 1000 IU/ml interleukin(IL)-4 (R&D System) in an AIM-V medium (Invitrogen) containing 2% heat-inactivated autologous serum (AS). After seven days of culturing, the cytokine-induced DCs were pulsed with 20 micro-g/ml each of the synthesized peptides in an AIM-V medium at 37 degrees C. for three hours in the presence of 3 micro-g/ml beta 2-microglobulin. The generated cells appeared to express on their cell surface DC-associated molecules such as CD80, CD83, CD86 and HLA class II (data not shown). Next, these peptide-pulsed DCs were inactivated by X-ray irradiation (20 Gy), and mixed in a 1:20 ratio with autologous CD8^+ T cells obtained by positive selection using the CD8 Positive Isolation Kit (Dynal). These culture products were seeded in a 48-well plate (Corning). Each well was made to contain 1.5×10^4 peptide-pulsed DCs, 3×10^5 CD8^+ T cells and 10 ng/ml IL-7 (R&D System) in 0.5 ml of the AIM-V/2% AS medium. Three days later, these culture products were added with a final concentration of 20 IU/ml IL-2 (CHIRON). On day 7 and day 14, T cells were further stimulated with peptide-pulsed autologous DCs. The DCs were prepared every time by the same method as above. On day 21, after the third peptide stimulation, CTLs were examined against the peptide-pulsed CIR-A33 cell by a human interferon (IFN)-gamma enzyme-linked immunospot (ELISPOT) assay (Tanaka H et al., Br J Cancer 2001, 84(1): 94-9; Umano Y et al., Br J Cancer 2001, 84(8): 1052-7; Uchida N et al., Clin Cancer Res 2004, 10(24): 8577-86; Suda T et al., Cancer Sci 2006, 97(5): 411-9; Watanabe T et al., Cancer Sci 2005, 96(8): 498-506).
(§2) Specifically, peptide-pulsed C1R-A33 (1×10^4 cells/well) was prepared as the stimulator cell. The induced CTLs, i.e., CTL lines and CTL clones, were used as the responder cell. The IFN-gamma ELISPOT assay and IFN-gamma ELISA were performed according to the manufacturer's manual.

[2] = test system: peptide-pulsed C1R-A33; experiment: IFN-gamma ELISA of CTL lines and CTL clones (HLA-A*3303); details: for IFN-gamma production of CTL lines: peptide-pulsed vs non-pulsed target cells, HLA-A*3303
Procedure: (§3) CTLs were propagated in culture using methods similar to those disclosed by Riddell et al. (Walter E A et al., N Engl J Med 1995, 333(16): 1038-44; Riddell S R et al., Nat Med 1996, 2(2): 216-23). The CTLs were co-cultured in a total of 25 ml AIM-V medium containing 5% AS (AIM-V/5% AS) and 40 ng/ml anti-CD3 antibody with two types of Mitomycin C-treated human B lymphoblastoid cell lines at 5×10^6 cells/flask. One day after beginning of the culturing, 120 IU/ml IL-2 was added to the culture. On days 5, 8 and 11, a fresh AIM-V/5% AS medium containing 30 IU/ml IL-2 was added to the culture (Tanaka H et al., Br J Cancer 2001, 84(1): 94-9; Umano Y et al., Br J Cancer 2001, 84(8): 1052-7; Uchida N et al., Clin Cancer Res 2004, 10(24): 8577-86; Suda T et al., Cancer Sci 2006, 97(5): 411-9; Watanabe T et al., Cancer Sci 2005, 96(8): 498-506).
(§4) Dilution of CTLs was carried out to make 0.3, 1 and 3 cells/well in 96 round-bottomed microtiter plates (Nalge Nunc International). The CTLs were co-cultured with two types of Mitomycin C-treated human B lymphoblastoid cell lines at 1×10^4 cells/well in a total of 150 micro-l/well AIM-V/5% AS medium with 30 ng/ml anti-CD3 antibody and 125 IU/ml IL-2. Ten days later, IL-2 was added to the medium at 50 micro-l/well to reach a final concentration of 125 IU/ml. On day 14, the CTL activity was tested, and the CTL clones were propagated using the same method as described above (Uchida N et al., Clin Cancer Res 2004, 10(24): 8577-86; Suda T et al., Cancer Sci 2006, 97(5): 411-9; Watanabe T et al., Cancer Sci 2005, 96(8): 498-506).
as §2

[3] = test system: peptide-pulsed C1R-A11 cells; experiment: IFN-gamma ELISPOT assay of peptide-induced CTLs (HLA-A*1101); details: CTLs induced from HLA-A*1101-positive donors, peptide-pulsed C1R-A11 vs control
Text: as §1, with “(HLA-A*1101-positive)” for “(HLA-A*3303-positive)”, “C1R-A11 cells” for “CIR-A33 cell”
(§5) Specifically, peptide-pulsed C1R-A11 (1×10^4 cells/well) was prepared as the stimulator cell. The induced CTLs, i.e., CTL lines and CTL clones, were used as the responder cell. The IFN-gamma ELISPOT assay and IFN-gamma ELISA were performed according to the manufacturer's manual.

[4] = test system: peptide-pulsed C1R-A11; experiment: IFN-gamma ELISA of CTL lines and CTL clones (HLA-A*1101); details: for IFN-gamma production of CTL lines: peptide-pulsed vs non-pulsed target cells, HLA-A*1101
Procedure: as §3, §4, §5

Sequence	peptide-specific CTL activity (IFN-gamma production) [1]	IFN-gamma production of CTL lines [2]	IFN-gamma production of CTL lines [4]	other results
NVAEIVIHIR (a peptide derived from CDCA1) [SEQ ID NO: 67]	potent IFN-gamma production	potent IFN-gamma production	–	–
ETADILCPK (a peptide derived from CDCA1) [SEQ ID NO: 5]	potent IFN-gamma production	–	potent IFN-gamma production	peptide-specific CTL activity (IFN-gamma production) ([3]; listed as CDCA1-A11-9-105): potent IFN-gamma production; also recorded: significant specific CTL activity; IFN-gamma production of CTL clones ([4]; CTL clones by limiting dilution, peptide-pulsed C1R-A11, listed as CDCA1-A11-9-105): Potent IFN-gamma production
TVQKLKNAR (a peptide derived from CDCA1) [SEQ ID NO: 28]	potent IFN-gamma production	–	–	–
DTVQKLKNAR (a peptide derived from CDCA1) [SEQ ID NO: 69]	potent IFN-gamma production	potent IFN-gamma production	–	–
GIINFIHFR (a peptide derived from CDCA1) [SEQ ID NO: 3]	potent IFN-gamma production	potent IFN-gamma production	potent IFN-gamma production	peptide-specific CTL activity (IFN-gamma production) ([3]; listed as CDCA1-A11-9-123): potent IFN-gamma production; also recorded: significant specific CTL activity; IFN-gamma production of CTL clones ([2]; CTL clones by limiting dilution, peptide-pulsed C1R-A33, listed as CDCA1-A33-9-123): Potent IFN-gamma production
SGIINFIHFR (a peptide derived from CDCA1) [SEQ ID NO: 68]	–	–	–	peptide-specific CTL activity (IFN-gamma production) ([1]; listed as CDCA1-A33-10-122): no specific IFN-gamma production; also recorded: specific IFN-gamma production was not observed
GADGKNLTK (a peptide derived from CDCA1) [SEQ ID NO: 21]	–	–	potent IFN-gamma production	peptide-specific CTL activity (IFN-gamma production) ([3]; listed as CDCA1-A11-9-25): potent IFN-gamma production; also recorded: significant specific CTL activity
DILCPKAKR (a peptide derived from CDCA1) [SEQ ID NO: 60]	potent IFN-gamma production	–	–	–
